According to PubChem BioAssay (NCI):
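The compound was tested at five concentrations on cells cultured in 96-well plates, with a 48-hour exposure period. TGI marks complete inhibition of growth.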

Columns and labels:
Experiment in all cases: NCI-60 cell line screen, 48 h
[1] = system: IGROV1 ovarian
[2] = system: HS 578T breast
[3] = system: OVCAR-8 ovarian
[4] = system: SK-MEL-2 melanoma
[5] = system: RPMI-8226 leukemia
[6] = system: OVCAR-5 ovarian
[7] = system: SW-620 colon
[8] = system: SF-539 CNS
[9] = system: CAKI-1 renal
[10] = system: MCF7 breast

Structure (SMILES) | TGI [1] | TGI [2] | TGI [3] | TGI [4] | TGI [5] | TGI [6] | TGI [7] | TGI [8] | TGI [9] | TGI [10]
NCCCN1CCN(CCCNc2ccc3nnn4c5ccccc5c(=O)c2c34)CC1 | 33.9 µM | 81.8 µM | > 100 µM | 36.1 µM | > 100 µM | > 100 µM | > 100 µM | 36.2 µM | 59.2 µM | 74.7 µM
Nc1nc(Cl)cc(NCC2(CO)CCC(CCc3ccccc3)C2)n1 (stereo not drawn) | 37 µM | 52.7 µM | 44 µM | 34.5 µM | – | 33.1 µM | 36 µM | 33.4 µM | 30.2 µM | 32.7 µM
COc1ccc(-c2c3c([nH]c(=S)c2C#N)CC(C)(C)CC3=O)cc1 | > 100 µM | > 100 µM | > 100 µM | > 100 µM | > 100 µM | > 100 µM | > 100 µM | > 100 µM | > 100 µM | > 100 µM
N/C(=N\S(=O)(=O)c1c(C(F)(F)F)cccc1C(F)(F)F)Nc1ccc(Cl)cc1 | 60.2 µM | 68.6 µM | 78 µM | 29.3 µM | > 100 µM | 73.1 µM | > 100 µM | > 100 µM | – | > 100 µM
O=C(O)c1cc(-c2ccc3c(O)c(O)ccc3c2)ccc1O | > 75 µM | > 75 µM | > 75 µM | > 75 µM | 49.1 µM | 26.2 µM | 36.8 µM | > 75 µM | 25.6 µM | 25.1 µM
O=C(Nc1ccccc1F)c1cc2ccc(O)cc2oc1=Nc1ccccc1F | 4.13 µM | 5.03 µM | 3.36 µM | 4.05 µM | 7.84 µM | 15.3 µM | 8.98 µM | 16.5 µM | 4.46 µM | 11.3 µM
CC1CN=C(N(C(=O)Nc2ccc(F)c(Cl)c2)c2ccccc2)S1 (stereo not drawn) | > 100 µM | > 100 µM | 65.7 µM | 32.8 µM | > 100 µM | 76.3 µM | 90.3 µM | > 100 µM | 67 µM | 25.9 µM
O=c1ccn(C2OC(CO)C(P(=O)(O)O)C2O)c(=O)[nH]1 (stereo not drawn) | > 100 µM | > 100 µM | > 100 µM | > 100 µM | > 100 µM | > 100 µM | > 100 µM | > 100 µM | > 100 µM | > 100 µM
ClC(Cl)=C1C(=C(Cl)Cl)C(Cl)(Cl)C1(Cl)Cl | 18.9 µM | 10.4 µM | 18.7 µM | 3.32 µM | 3.69 µM | 6.25 µM | 3.75 µM | 6.08 µM | 8.14 µM | 19.2 µM
C=C1c2cc3c(cc2CC12Cc1cc4c(cc1C2=O)CCC4)CCC3 (stereo not drawn) | > 100 µM | > 100 µM | > 100 µM | > 100 µM | > 100 µM | > 100 µM | > 100 µM | > 100 µM | > 100 µM | > 100 µM
